#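 Compound exposure: 48 hours, 5 concentrations, 96-well plates. GI50: concentration for 50% inhibition of growth.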 Calls of active or inactive are those of the source. Cut-off read from the data, not from the text of the source: active = GI50 up to about 1.1 µM and inactive = higher.
# What was measured:
# Assay in all cases: growth of human tumour cells (NCI), 48 h
# HT-29 = test system: HT-29
# MDA-MB-435 = test system: MDA-MB-435
# NCI-H522 = test system: NCI-H522
# DU-145 = test system: DU-145
# LOX IMVI = test system: LOX IMVI
# HL-60 = test system: HL-60
# NCI/ADR-RES = test system: NCI/ADR-RES
# MCF7 = test system: MCF7
# SNB-19 = test system: SNB-19
# MDA-MB-231 = test system: MDA-MB-231
# HCT-15 = test system: HCT-15
# MDA-N = test system: MDA-N
# T47D = test system: T47D
# SK-MEL-5 = test system: SK-MEL-5
# HCT-116 = test system: HCT-116
# NCI-H23 = test system: NCI-H23
# IGROV-1 = test system: IGROV-1
# OVCAR-4 = test system: OVCAR-4
# OVCAR-8 = test system: OVCAR-8
# A549 = test system: A549
# RPMI-8226 = test system: RPMI-8226
# SW-620 = test system: SW-620
# HCC 2998 = test system: HCC 2998
# SN12C = test system: SN12C
# EKVX = test system: EKVX
# SK-OV-3 = test system: SK-OV-3
# TK-10 = test system: TK-10
# SF-295 = test system: SF-295
# UO-31 = test system: UO-31
# SR = test system: SR
# COLO 205 = test system: COLO 205
# PC-3 = test system: PC-3
# SF-539 = test system: SF-539
# ACHN = test system: ACHN
# SK-MEL-28 = test system: SK-MEL-28
# HOP-92 = test system: HOP-92
# NCI-H226 = test system: NCI-H226
# SNB-75 = test system: SNB-75
# Hs-578T = test system: Hs-578T
# SF-268 = test system: SF-268
# RXF 393 = test system: RXF 393
# 786-0 = test system: 786-0
# Malme-3M = test system: Malme-3M
# MOLT-4 = test system: MOLT-4
# CAKI-1 = test system: CAKI-1
# CCRF-CEM = test system: CCRF-CEM
# KM12 = test system: KM12
# BT-549 = test system: BT-549
# M14 = test system: M14
# K562 = test system: K562
# UACC-62 = test system: UACC-62
# UACC-257 = test system: UACC-257
# HOP-62 = test system: HOP-62
# NCI-H460 = test system: NCI-H460
# OVCAR-5 = test system: OVCAR-5
# OVCAR-3 = test system: OVCAR-3
# U-251 = test system: U-251
# SK-MEL-2 = test system: SK-MEL-2
smiles,measurement,setting,value
CCOC(=O)/C(C#N)=C\c1ccc(N(CCC(=O)O)CCC(=O)O)c(I)c1,GI50,HT-29,> 10 µM (inactive)
same,GI50,MDA-MB-435,> 10 µM (inactive)
same,GI50,NCI-H522,> 10 µM (inactive)
same,GI50,DU-145,> 10 µM (inactive)
same,GI50,LOX IMVI,> 10 µM (inactive)
same,GI50,HL-60,> 10 µM (inactive)
same,GI50,NCI/ADR-RES,> 10 µM (inactive)
same,GI50,MCF7,> 10 µM (inactive)
same,GI50,SNB-19,> 10 µM (inactive)
same,GI50,MDA-MB-231,> 10 µM (inactive)
same,GI50,HCT-15,> 10 µM
same,GI50,MDA-N,> 10 µM (inactive)
same,GI50,T47D,> 10 µM (inactive)
same,GI50,SK-MEL-5,> 10 µM (inactive)
same,GI50,HCT-116,> 10 µM (inactive)
same,GI50,NCI-H23,> 10 µM (inactive)
same,GI50,IGROV-1,> 10 µM (inactive)
same,GI50,OVCAR-4,> 10 µM (inactive)
same,GI50,OVCAR-8,> 10 µM (inactive)
same,GI50,A549,> 10 µM (inactive)
same,GI50,RPMI-8226,> 10 µM (inactive)
same,GI50,SW-620,> 10 µM (inactive)
same,GI50,HCC 2998,> 10 µM (inactive)
same,GI50,SN12C,> 10 µM (inactive)
same,GI50,EKVX,> 10 µM (inactive)
same,GI50,SK-OV-3,> 10 µM (inactive)
same,GI50,TK-10,> 10 µM (inactive)
same,GI50,SF-295,> 10 µM (inactive)
same,GI50,UO-31,> 10 µM (inactive)
same,GI50,SR,> 10 µM (inactive)
same,GI50,COLO 205,> 10 µM (inactive)
same,GI50,PC-3,> 10 µM (inactive)
same,GI50,SF-539,> 10 µM (inactive)
same,GI50,ACHN,> 10 µM (inactive)
same,GI50,SK-MEL-28,> 10 µM (inactive)
same,GI50,HOP-92,> 10 µM (inactive)
same,GI50,NCI-H226,> 10 µM (inactive)
same,GI50,SNB-75,> 10 µM (inactive)
same,GI50,Hs-578T,> 10 µM (inactive)
same,GI50,SF-268,> 10 µM (inactive)
same,GI50,RXF 393,> 10 µM (inactive)
same,GI50,786-0,> 10 µM (inactive)
same,GI50,Malme-3M,> 10 µM (inactive)
same,GI50,MOLT-4,> 10 µM (inactive)
same,GI50,CAKI-1,> 10 µM (inactive)
same,GI50,CCRF-CEM,> 10 µM (inactive)
same,GI50,KM12,> 10 µM (inactive)
same,GI50,BT-549,> 10 µM (inactive)
same,GI50,M14,> 10 µM (inactive)
same,GI50,K562,> 10 µM (inactive)
same,GI50,UACC-62,> 10 µM (inactive)
same,GI50,UACC-257,> 10 µM (inactive)
same,GI50,HOP-62,> 10 µM (inactive)
same,GI50,NCI-H460,> 10 µM (inactive)
c1ccc2c(c1)cc1n2CCc2c-1[nH]c1ccccc21,GI50,HT-29,> 10 µM (inactive)
same,GI50,MDA-MB-435,> 10 µM (inactive)
same,GI50,OVCAR-5,> 10 µM (inactive)
same,GI50,NCI-H522,> 10 µM (inactive)
same,GI50,OVCAR-3,> 10 µM (inactive)
same,GI50,DU-145,> 10 µM (inactive)
same,GI50,LOX IMVI,> 10 µM (inactive)
same,GI50,HL-60,> 10 µM (inactive)
same,GI50,NCI/ADR-RES,> 10 µM (inactive)
same,GI50,MCF7,> 10 µM (inactive)
same,GI50,SNB-19,> 10 µM (inactive)
same,GI50,MDA-MB-231,> 10 µM (inactive)
same,GI50,HCT-15,5.12 µM
same,GI50,MDA-N,> 10 µM (inactive)
same,GI50,T47D,3.01 µM (inactive)
same,GI50,U-251,> 10 µM (inactive)
same,GI50,SK-MEL-5,> 10 µM (inactive)
same,GI50,HCT-116,> 10 µM (inactive)
same,GI50,NCI-H23,> 10 µM (inactive)
same,GI50,IGROV-1,> 10 µM (inactive)
same,GI50,OVCAR-4,> 10 µM (inactive)
same,GI50,OVCAR-8,> 10 µM (inactive)
same,GI50,A549,> 10 µM (inactive)
same,GI50,RPMI-8226,> 10 µM (inactive)
same,GI50,SW-620,> 10 µM (inactive)
same,GI50,SK-MEL-2,> 10 µM (inactive)
same,GI50,HCC 2998,> 10 µM (inactive)
same,GI50,SN12C,> 10 µM (inactive)
same,GI50,EKVX,> 10 µM (inactive)
same,GI50,SK-OV-3,> 10 µM (inactive)
same,GI50,TK-10,> 10 µM (inactive)
same,GI50,SF-295,> 10 µM (inactive)
same,GI50,UO-31,> 10 µM (inactive)
same,GI50,SR,> 10 µM (inactive)
same,GI50,COLO 205,> 10 µM (inactive)
same,GI50,PC-3,> 10 µM (inactive)
same,GI50,SF-539,> 10 µM (inactive)
same,GI50,ACHN,> 10 µM (inactive)
same,GI50,SK-MEL-28,> 10 µM (inactive)
same,GI50,HOP-92,> 10 µM (inactive)
same,GI50,NCI-H226,> 10 µM (inactive)
same,GI50,SNB-75,> 10 µM (inactive)
same,GI50,Hs-578T,> 10 µM (inactive)
same,GI50,SF-268,> 10 µM (inactive)
same,GI50,RXF 393,> 10 µM (inactive)
same,GI50,786-0,> 10 µM (inactive)
same,GI50,Malme-3M,> 10 µM (inactive)
same,GI50,MOLT-4,> 10 µM (inactive)
same,GI50,CAKI-1,> 10 µM (inactive)
same,GI50,CCRF-CEM,> 10 µM (inactive)
same,GI50,KM12,> 10 µM (inactive)
same,GI50,BT-549,> 10 µM (inactive)
same,GI50,M14,> 10 µM (inactive)
same,GI50,K562,> 10 µM (inactive)
same,GI50,UACC-62,> 10 µM (inactive)
same,GI50,UACC-257,> 10 µM (inactive)
same,GI50,HOP-62,> 10 µM (inactive)
same,GI50,NCI-H460,> 10 µM (inactive)
